According to article PMC6038383, “Crystal structure of the spliceosomal DEAH-box ATPase Prp2” (Acta Crystallographica. Section D, Structural Biology, 2018):

Biological target: T1, Prp2 from C. thermophilum (ctPrp2), residues 270-921 (Thermochaetoides thermophila, UniProt G0SEG4)
T1 construct: gene CTHT_0063660; N-terminally truncated residues 270-921, GST tag cleaved with PreScission protease, expressed in E. coli Rosetta 2 (DE3)
T1 sequence (G0SEG4 270-921): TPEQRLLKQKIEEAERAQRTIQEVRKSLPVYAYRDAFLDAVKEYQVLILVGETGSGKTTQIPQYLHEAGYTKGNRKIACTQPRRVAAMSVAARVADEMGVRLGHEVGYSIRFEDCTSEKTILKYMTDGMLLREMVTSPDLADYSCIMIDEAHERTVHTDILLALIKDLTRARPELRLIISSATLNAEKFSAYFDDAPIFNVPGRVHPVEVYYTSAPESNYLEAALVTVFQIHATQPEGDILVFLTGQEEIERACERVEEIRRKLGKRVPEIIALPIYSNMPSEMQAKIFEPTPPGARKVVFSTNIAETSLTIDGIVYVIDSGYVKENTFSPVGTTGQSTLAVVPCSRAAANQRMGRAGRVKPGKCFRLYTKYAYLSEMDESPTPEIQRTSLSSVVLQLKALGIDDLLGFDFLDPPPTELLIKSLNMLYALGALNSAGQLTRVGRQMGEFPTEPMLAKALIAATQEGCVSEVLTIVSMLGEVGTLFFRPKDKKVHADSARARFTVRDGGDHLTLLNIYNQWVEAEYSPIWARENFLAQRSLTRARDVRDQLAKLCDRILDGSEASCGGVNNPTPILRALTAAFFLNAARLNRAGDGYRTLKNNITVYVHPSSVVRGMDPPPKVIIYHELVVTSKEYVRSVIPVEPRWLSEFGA
Experiment: isothermal titration calorimetry
Format: binding

Kd: 179 nM
Structure (SMILES): Nc1ncnc2c1ncn2[C@@H]1O[C@H](COP(=O)(O)OP(=O)(O)O)[C@@H](O)[C@H]1O [ADP]
